# Test results reported in patent US20260217679A1, “CANCER TREATING COMPOUNDS” (UNIVERSITY OF BRADFORD, priority 2023, published 2026).
# Like-named read-outs stand apart in the source and are kept apart here.
# Legend:
# [1] = test system: H2AX phosphorylation in MDA-MB-231; assay: H2AX phosphorylation Western Blot as marker of double-stranded DNA damage; assay type: cell-based, human; conditions: MDA-MB-231, Western Blot, FIG. 1
# From the text: The mechanism of action of the naturally occurring duocarmycins is well documented and involves spirocyclization of the seco-duocamycins including those derived from the CBI and other aryl-ring-fused subunits of the duocarmycin alkylating subunit.
# [2] = test system: RH41; assay: Anti-proliferative activity in RMS cell lines, MTT assay; assay type: cell-based; conditions: Homo sapiens, read-out: IC50 RH41
# Procedure: (§1) Briefly, […] of a cell suspension (~2000 cells/well) was added in fresh, sterile 96-well plates. Afterwards, rhabdomyosarcoma (RMS) cell lines (RH30, RH41 and JR1) were incubated for 24 h at 37° C., 5% CO2 to allow cellular attachment on the surface of the wells. On the next day after cell seeding, cells were treated with the duocarmycin compounds. 20 μL of drug dilution was added into the wells, making up a final volume of 200 μL/well. In untreated control wells, 20 μL of fresh medium was added instead (0.1% DMSO). Duocarmycin stock concentrations were prepared in DMSO; the concentration of the latter in the wells containing the medium and cells never exceeded 0.1% (v/v). The concentrations tested ranged from 100 μM to 1 pM depending on the IC50 of each compound from preliminary screening. Each experiment was tested at least in triplicate, and antiproliferative activity was determined after 96 hours using a standard MTT (3-(4,5-dimethylthiazol-2-yl)-2,5-diphenyltetrazolium bromide) assay.
# [3] = test system: RH30; assay: as above; assay type: cell-based; conditions: read-out: IC50 RH30
# Procedure: as §1
# [4] = test system: JR1; assay: as above; assay type: cell-based; conditions: read-out: IC50 JR1
# Procedure: as §1
# [5] = test system: MCF-7; assay: Growth inhibition of MCF-7 (oestrogen receptor positive) breast cancer cell line; assay type: cell-based; conditions: Homo sapiens
# Procedure: (§2) The compounds of the present invention were evaluated for their ability to inhibit the growth of MDA-MB-231 (triple-negative) and MCF-7 (oestrogen receptor positive) breast cancer cell lines. A positive control (PC), seco-CBI-MI, with structure shown below, was used as a baseline for comparison of the efficacy of the compounds of the present invention.
# [6] = test system: MDA-MB-231; assay: Growth inhibition of MDA-MB-231 (triple-negative) breast cancer cell line; assay type: cell-based; conditions: Homo sapiens
# Procedure: as §2
# [7] = MDA-MB-231, read-out: IC50 MDA MB 231
# [8] = MCF7, MCF-7 growth inhibition, read-out: IC50 MCF7
# [9] = MDA-MB-231 growth inhibition, read-out: IC50 MDA MB 231
SMILES,DNA damage measured using H2AX phosphorylation [1],"IC50 ([2]; RH41, 96 hours, MTT)","IC50 ([3]; RH30, 96 hours, MTT)","IC50 ([4]; JR1, 96 hours, MTT)","IC50 ([5]; MCF7, read-out: IC50 MCF7)","IC50 [6, 7]","IC50 ([2]; Rh41, 96 h)","IC50 ([3]; Rh30, 96 h)",IC50 ([4]; 96 h),"IC50 [5, 8]","IC50 [6, 9]"
COc1ccc2[nH]c(C(=O)N3CC(CCl)c4c3cc(O)c3ccccc43)cc2c1 (centres unmarked) [DP31],generated DNA damage,0.0368 ± 0.0316 nM,0.0861 ± 0.0248 nM,0.243 ± 0.308 nM,–,–,–,–,–,–,–
COc1ccc2[nH]c(C(=O)N3CC(CCl)c4c3cc(-c3ccc(O)cc3)c3ccccc43)cc2c1 (centres unmarked) [DP36],generated DNA damage,–,–,–,20 ± 27.1 nM,23.3 ± 9.9 nM,24.9 ± 34 nM,6.69 ± 4.33 nM,7.28 ± 6.1 nM,–,–
O=C(c1cc2cc(O)ccc2[nH]1)N1CC(CCl)c2c1cc(OCc1ccccc1)c1ccccc21 (centres unmarked) [DP40],–,530 ± 514 nM,227 ± 307 nM,1400 ± 1240 nM,–,–,–,–,–,1300 ± 100 nM,2200 ± 200 nM
C#CCCC(=O)Oc1ccc2[nH]c(C(=O)N3CC(CCl)c4c3cc(OCc3ccccc3)c3ccccc43)cc2c1 (centres unmarked) [DP42],–,–,–,–,–,3200 ± 2900 nM,378 ± 209 nM,81.5 ± 77.3 nM,278 ± 156 nM,–,–
COc1ccc2[nH]c(C(=O)N3CC(CCl)c4c3cc(-c3ccc(CO)cc3)c3ccccc43)cc2c1 (centres unmarked) [DP44],–,–,–,–,4800 ± 4800 nM,5400 ± 5800 nM,2800 ± 1960 nM,2190 ± 3100 nM,4860 ± 4780 nM,–,–
COc1ccc2[nH]c(C(=O)N3CC(CCl)c4c3cc(-c3ccc(C)cc3)c3ccccc43)cc2c1 (centres unmarked) [DP45],generated DNA damage,–,–,–,> 10000 nM,> 10000 nM,68000 ± 50700 nM,56700 ± 37600 nM,32900 ± 29100 nM,–,–
COc1ccc2[nH]c(C(=O)N3CC(CCl)c4c3cc(-c3cccc(O)c3)c3ccccc43)cc2c1 (centres unmarked) [DP47],generated DNA damage,–,–,–,104 ± 79.8 nM,206 ± 79.6 nM,19.2 ± 20.9 nM,60.3 ± 49.1 nM,59.2 ± 27.2 nM,–,–
COc1ccc2[nH]c(C(=O)N3CC(CCl)c4c3cc(-c3ccc(N)cc3)c3ccccc43)cc2c1 (centres unmarked) [DP48],–,–,–,–,713 nM,911 nM,581 ± 648 nM,355 ± 352 nM,5170 ± 4280 nM,–,–
C#CCCCC(=O)Oc1ccc2[nH]c(C(=O)N3CC(CCl)c4c3cc(OCc3ccccc3)c3ccccc43)cc2c1 (centres unmarked) [DP51],–,–,–,–,–,> 10000 nM,2510 ± 1160 nM,1220 ± 830 nM,18500 ± 9640 nM,–,–
COc1ccc(Nc2cc3c(c4ccccc24)C(CCl)CN3C(=O)c2cc3cc(OC)ccc3[nH]2)cc1 (centres unmarked) [DP59],generated DNA damage,0.298 ± 0.154 nM,0.376 ± 0.157 nM,1.33 ± 1.93 nM,–,–,–,–,–,2.5 ± 0.7 nM,7.6 ± 2.1 nM
CCCCNc1cc2c(c3ccccc13)C(CCl)CN2C(=O)c1cc2cc(OC)ccc2[nH]1 (centres unmarked) [DP63],–,0.0204 ± 0.0114 nM,0.101 ± 0.048 nM,0.217 ± 0.287 nM,–,–,–,–,–,0.8 ± 0.3 nM,1.7 ± 1.4 nM
COC(=O)[C@H](CC(C)C)Nc1cc2c(c3ccccc13)C(CCl)CN2C(=O)c1cc2cc(OC)ccc2[nH]1 (some centres unmarked) [DP65],generated DNA damage,0.00551 ± 0.00229 nM,0.0763 ± 0.129 nM,0.323 ± 0.291 nM,–,–,–,–,–,8.1 ± 7 nM,28.3 ± 29 nM
COc1ccc2[nH]c(C(=O)N3CC(CCl)c4c3cc(Nc3ccc(C(F)(F)F)cc3)c3ccccc43)cc2c1 (centres unmarked) [DP70],generated DNA damage,31.2 ± 28.8 nM,18.9 ± 18.9 nM,44.6 ± 56.1 nM,–,–,–,–,–,76.7 ± 29 nM,129 ± 18.9 nM
COc1ccc2[nH]c(C(=O)N3CC(CCl)c4c3ccc3ccc(OCc5ccccc5)cc43)cc2c1 (centres unmarked) [DP77],–,–,–,–,> 10000 nM,> 10000 nM,22500 ± 17400 nM,3080 ± 2570 nM,22100 ± 19600 nM,–,–
COc1ccc2[nH]c(C(=O)N3CC(CCl)c4c3ccc3ccc(O)cc43)cc2c1 (centres unmarked) [DP78],–,–,–,–,1020 ± 200 nM,1080 ± 200 nM,500000 ± 416000 nM,268 ± 130 nM,3510 ± 1840 nM,–,–
"COc1ccc(-c2cc3c(c4ccccc24)C(CCl)CN3C(=O)c2cc3cc(OC)ccc3[nH]2)cc1 (centres unmarked) [ICT11038, (1-(Chloromethyl)-5-(4-methoxyphenyl)-1H-benzo[e]indol-3(2H)-yl)(5-methoxy-1H-indol-2-yl)methanone]",–,–,–,–,–,–,121000 ± 95300 nM,35.8 ± 16.4 nM,801000 ± 207000 nM,–,–
"COCc1ccc(-c2cc3c(c4ccccc24)C(CCl)CN3C(=O)c2cc3cc(OC)ccc3[nH]2)cc1 (centres unmarked) [ICT11039, (1-(Chloromethyl)-5-(4-(methoxymethyl)phenyl)-1H-benzo[e]indol-3(2H)-yl)(5-methoxy-1H-indol-2-yl)methanone]",–,–,–,–,–,–,1140 ± 500 nM,12800 ± 8460 nM,10100 ± 5780 nM,–,–
"COc1ccc2[nH]c(C(=O)N3CC(CCl)c4c3cc(-c3ccncc3)c3ccccc43)cc2c1 (centres unmarked) [ICT11040, (1-(Chloromethyl)-5-(pyridin-4-yl)-1H-benzo[e]indol-3(2H)-yl)(5-methoxy-1H-indol-2-yl)methanone]",–,–,–,–,–,–,576 ± 405 nM,494 ± 267 nM,861 ± 329 nM,–,–
"COc1ccc2[nH]c(C(=O)N3CC(CCl)c4c3cc(-c3cccnc3)c3ccccc43)cc2c1 (centres unmarked) [ICT11041, (1-(Chloromethyl)-5-(pyridin-3-yl)-1H-benzo[e]indol-3(2H)-yl)(5-methoxy-1H-indol-2-yl)methanone]",–,–,–,–,–,–,6000 ± 5120 nM,8040 ± 1030 nM,12200 ± 4580 nM,–,–
"COc1ccc2[nH]c(C(=O)N3CC(CCl)c4c3cc(-c3ccccc3)c3ccccc43)cc2c1 (centres unmarked) [ICT11043, (1-(Chloromethyl)-5-phenyl-1H-benzo[e]indol-3(2H)-yl)(5-methoxy-1H-indol-2-yl)methanone]",–,–,–,–,–,–,30200 ± 23100 nM,56000 ± 17000 nM,138000 ± 75800 nM,–,–
"COc1ccc2[nH]c(C(=O)N3CC(CCl)c4c3cc(-c3ccccc3O)c3ccccc43)cc2c1 (centres unmarked) [ICT11044, (1-(Chloromethyl)-5-(2-hydroxyphenyl)-1H-benzo[e]indol-3(2H)-yl)(5-methoxy-1H-indol-2-yl)methanone]",–,–,–,–,–,–,291 ± 204 nM,124 ± 134 nM,422 ± 177 nM,–,–
"COc1ccc2[nH]c(C(=O)N3CC(CCl)c4c3cc(O)c3ccccc43)cc2c1 (centres unmarked) [PC, seco-CBI-MI, reference compound]",–,–,–,–,–,–,–,–,–,0.69 ± 0.3 nM,0.62 ± 0.5 nM
